Assay results taken from patent US8980899B2, “Methods of inhibiting Ire1” (The Regents of the University of California, priority 2009, dated 2015).

Experiments:
yeast Ire1 = molecular target: T1, yeast Ire1 (Saccharomyces cerevisiae, UniProt P32361); assay: In vitro inhibition assay, cleavage of 32P-labeled RNA by yeast Ire1; format: biochemical; details: for Ire1 activity with yeast Ire1: RNA cleavage, 32P-labeled RNA, 30° C., Control (no inhibitor) 0.1149
T1 sequence (P32361 19-1115): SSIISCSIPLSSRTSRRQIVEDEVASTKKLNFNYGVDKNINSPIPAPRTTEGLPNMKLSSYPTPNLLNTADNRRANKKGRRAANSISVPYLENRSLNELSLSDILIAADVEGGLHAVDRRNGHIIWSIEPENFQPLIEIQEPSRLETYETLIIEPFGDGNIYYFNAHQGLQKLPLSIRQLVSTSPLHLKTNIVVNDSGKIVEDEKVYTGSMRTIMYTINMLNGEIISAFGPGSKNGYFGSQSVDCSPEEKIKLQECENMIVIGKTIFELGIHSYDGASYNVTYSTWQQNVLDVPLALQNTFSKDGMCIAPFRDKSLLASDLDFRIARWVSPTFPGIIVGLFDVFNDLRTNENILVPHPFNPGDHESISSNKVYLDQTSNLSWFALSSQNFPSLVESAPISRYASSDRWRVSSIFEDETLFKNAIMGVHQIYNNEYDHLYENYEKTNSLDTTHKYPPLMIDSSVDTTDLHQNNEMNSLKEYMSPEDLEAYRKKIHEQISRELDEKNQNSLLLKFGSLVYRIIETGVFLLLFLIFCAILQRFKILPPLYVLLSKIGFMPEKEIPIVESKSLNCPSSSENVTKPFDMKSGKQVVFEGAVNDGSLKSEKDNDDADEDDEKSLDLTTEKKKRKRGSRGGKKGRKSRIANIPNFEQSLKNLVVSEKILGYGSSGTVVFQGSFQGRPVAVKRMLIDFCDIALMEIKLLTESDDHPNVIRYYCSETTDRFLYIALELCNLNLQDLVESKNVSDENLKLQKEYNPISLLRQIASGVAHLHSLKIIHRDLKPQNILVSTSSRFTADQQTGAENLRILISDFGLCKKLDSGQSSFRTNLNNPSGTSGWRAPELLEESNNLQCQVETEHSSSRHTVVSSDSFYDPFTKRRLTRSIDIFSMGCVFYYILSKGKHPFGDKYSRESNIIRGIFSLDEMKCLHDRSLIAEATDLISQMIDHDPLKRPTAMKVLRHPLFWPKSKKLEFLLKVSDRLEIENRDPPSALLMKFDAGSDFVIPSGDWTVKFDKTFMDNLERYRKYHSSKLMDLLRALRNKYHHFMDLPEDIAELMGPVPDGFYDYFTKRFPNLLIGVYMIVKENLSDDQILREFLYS

[1] = molecular target: Recombinant human Ire1-alpha (Homo sapiens, UniProt O75460); assay: In vitro inhibition assay, cleavage of 32P-stem-loop RNA by human Ire1; format: biochemical; parameters: Ire1 activity with human Ire1 alpha: unit not given here; details: for Ire1 activity with human Ire1 alpha: RNA cleavage, 1 μM Ire1, 32P-labeled RNA, 30° C., Control (no inhibitor) 0.085; for Ire1 activity: in vitro cleavage of 32P-stem-loop RNA by human Ire1, AD series, Control (no inhibitor) 8.8310e−3
Chain of Recombinant human Ire1-alpha (O75460 19-977): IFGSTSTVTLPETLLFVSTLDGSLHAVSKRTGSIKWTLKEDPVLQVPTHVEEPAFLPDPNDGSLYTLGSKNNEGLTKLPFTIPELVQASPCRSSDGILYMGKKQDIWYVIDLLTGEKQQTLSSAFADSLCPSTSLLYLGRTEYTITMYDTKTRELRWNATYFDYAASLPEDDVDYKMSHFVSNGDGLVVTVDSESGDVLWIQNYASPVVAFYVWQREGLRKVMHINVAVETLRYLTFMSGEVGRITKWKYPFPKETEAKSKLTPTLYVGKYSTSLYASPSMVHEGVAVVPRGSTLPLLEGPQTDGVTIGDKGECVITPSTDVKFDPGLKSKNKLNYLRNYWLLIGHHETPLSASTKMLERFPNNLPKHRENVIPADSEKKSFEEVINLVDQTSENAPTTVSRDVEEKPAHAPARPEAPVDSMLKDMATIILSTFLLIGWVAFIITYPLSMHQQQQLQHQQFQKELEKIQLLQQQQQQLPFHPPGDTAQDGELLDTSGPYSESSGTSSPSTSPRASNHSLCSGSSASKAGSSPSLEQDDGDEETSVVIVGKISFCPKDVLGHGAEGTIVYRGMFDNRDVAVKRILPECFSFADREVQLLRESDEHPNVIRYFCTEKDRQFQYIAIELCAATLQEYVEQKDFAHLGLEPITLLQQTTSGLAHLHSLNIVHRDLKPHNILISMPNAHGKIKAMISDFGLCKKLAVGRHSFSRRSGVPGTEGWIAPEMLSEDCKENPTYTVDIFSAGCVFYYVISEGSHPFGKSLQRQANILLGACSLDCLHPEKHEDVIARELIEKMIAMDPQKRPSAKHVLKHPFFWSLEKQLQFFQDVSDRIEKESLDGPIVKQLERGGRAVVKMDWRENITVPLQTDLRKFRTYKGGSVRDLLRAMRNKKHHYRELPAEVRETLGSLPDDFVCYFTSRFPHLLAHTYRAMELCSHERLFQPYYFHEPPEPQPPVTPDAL
Protocol: Recombinant human […]) was mixed with reaction buffer, inhibitor solution in DMSO, and ^32P-labeled RNA substrate having sequence 5'-[…] NO:1). Reactions were conducted at 30° C. and initiated by adding the RNA to reaction pre-mix containing all the components minus the RNA. […] (The reaction mixture may be modified by using different components or concentrations, different RNA substrate, or different Ire1 protein construct.) At time intervals (0 seconds, 10 seconds, 30 seconds, and 3 minutes), 1 μl aliquots of reaction mixture were taken and quenched in 10 M Urea, 0.1% SDS. Samples were analyzed by denaturing polyacrylamide gel electrophoresis and quantified using Typhoon phosphorImager. […] Reactions with Irestatin and exemplary compounds were conducted analogously. Irestatin was a gift obtained from the SPECS screen available as 5 mM solution in DMSO at UCSF small molecule discovery center.

yIre1 = molecular target: T2, yIre1 (Saccharomyces cerevisiae, UniProt P32361); assay: RNase cleavage assay (yIre1 activation); format: biochemical, yeast; details: yIre1 RNA cleavage, 30° C., 2 mM ADP; Control (no inhibitor) 0.000504
T2 sequence (P32361 19-1115): T1 sequence (P32361 19-1115)
Protocol: RNA cleavage reactions were conducted at 30° C. in buffer containing 20 mM HEPES (pH 7.5), 70 mM NaCl, 2 mM ADP (pH 7.0), 2 mM Mg(OAc)2, 5 mM DTT, 5% glycerol, less than 1 nM ^32p-labeled RNA substrate, and 3 nM-[…] Ire1. Reaction solutions and buffers were designed using Biochem Lab Solutions 3.5. Reactions were prepared such that 1 μl of RNA was added to 9 μl of pre-warmed reaction mixture containing all components except RNA. Typically, 3-10 minute time courses were collected starting from 5 seconds for the first time point. At time intervals, 1 μl of solution was withdrawn from each reaction and mixed with 6 μl stop solution containing 10 M urea, 0.1% SDS, 0.1 mM EDTA, 0.05% xylene cyanol, and 0.05% bromophenol blue. The samples were separated by a denaturing 10% PAGE and exposed on a phosphor storage screen. The screens were scanned on a Storm or a Typhoon instrument and quantified using ImageQuant 5.0 or GelQuant.NET 1.4 programs. The data were plotted and fit in SigmaPlot 6.0.

hIre1 = hIre1 (Homo sapiens, UniProt O75460); assay: Titrations of Ire1 inhibitors to measure Ki using 1 μM hIre1; format: biochemical; details: 1 μM hIre1, 5′-32p-HP21, 30° C.
Chain of hIre1 (O75460 19-977): as above
Protocol: Recombinant human Ire1-alpha (1 μM f/c) was mixed with reaction buffer, inhibitor solution in DMSO, and ^32P-labeled RNA substrate having sequence 5′-UGCACCUCUGCAGCAGGUGCA (SEQ ID NO:1). Reactions were conducted at 30° C. and initiated by adding the RNA to reaction pre-mix containing all the components minus the RNA. The final reaction contained: 20 mM HEPES pH 7, 70 mM NaCl, 2 mM MgCl2, 5% glycerol, 4 mM DTT, 10% DMSO, 1 μM Ire1 and <1 nM 32P-labeled RNA. (The reaction mixture may be modified by using different components or concentrations, different RNA substrate, or different Ire1 protein construct.)
At time intervals (0 seconds, ˜10 seconds, ˜30 seconds, and ˜3 minutes), 1 μl aliquots of reaction mixture were taken and quenched in 10 M Urea, 0.1% SDS. Samples were analyzed by denaturing polyacrylamide gel electrophoresis and quantified using Typhoon phosphorImager.
Inhibition was measured by the extent of RNA cleavage slowdown in the presence of inhibitor (0.3-100 μM) compared to reaction containing no inhibitors.

Structure (SMILES) | Ire1 activity with yeast Ire1 (yeast Ire1) | Ire1 activity with human Ire1 alpha [1] | Ire1 activity [1] | also measured
CC(C)n1nc(Cc2cccc(NC(=O)Nc3cccc(C(F)(F)F)c3)c2)c2c(N)ncnc21 [AD36, 1-(3-((4-amino-1-isopropyl-1H-pyrazolo[3,4-d]pyrimidin-3-yl)methyl)phenyl)-3-(3-(trifluoromethyl)phenyl)urea] | 1.05E−03 | 0.09575 | – | Ire1 activity (yIre1): 0.000322
CC(C)n1nc(-c2ccc(NC(=O)Nc3cccc(C(F)(F)F)c3)cc2)c2c(N)ncnc21 [AD57, 1-(4-(4-amino-1-isopropyl-1H-pyrazolo[3,4-d]pyrimidin-3-yl)phenyl)-3-(3-(trifluoromethyl)phenyl)urea] | 3.26E−03 | 0.05508 | – | –
Nc1ncnc2c1c(-c1ccc(NC(=O)Nc3cccc(C(F)(F)F)c3)cc1)nn2C1CCCC1 [AD60, 1-(4-(4-amino-1-cyclopentyl-1H-pyrazolo[3,4-d]pyrimidin-3-yl)phenyl)-3-(3-(trifluoromethyl)phenyl)urea] | 2.42E−03 | 0.02258 | 4.0180e−3 | inhibition of yIre1 (in words) (yeast Ire1): can inhibit; inhibition of hIre1 (in words) [1]: can inhibit; Ire1 activity (yIre1): 4.04E−05
Nc1ncnc2c1c(-c1ccc(NC(=O)Nc3cccc(C(F)(F)F)c3)cc1)nn2CCCO [AD64] | – | – | 6.9280e−4 | Ki (hIre1): ~1 µM
Nc1ncnc2c1c(-c1ccc(NC(=O)c3cccc(C(F)(F)F)c3)cc1)nn2CCCO [AD65] | – | – | – | Ki (hIre1): ~30 µM
Nc1ncnc2c1c(-c1ccc(NC(=O)Nc3cccc(C(F)(F)F)c3)cc1)nn2[C@H]1CCOC1 [AD66, 1-(4-(4-amino-1-((S)-tetrahydrofuran-3-yl)-1H-pyrazolo[3,4-d]pyrimidin-3-yl)phenyl)-3-(3-(trifluoromethyl)phenyl)urea] | – | – | 0.0107 | –
Nc1ncnc2c1c(-c1ccc(NC(=O)c3cccc(C(F)(F)F)c3)cc1)nn2[C@H]1CCOC1 [AD67, N-(4-(4-amino-1-((S)-tetrahydrofuran-3-yl)-1H-pyrazolo[3,4-d]pyrimidin-3-yl)phenyl)-3-(trifluoromethyl)benzamide] | – | – | 0.0100 | –
Nc1ncnc2c1c(-c1ccc(NC(=O)c3cccc(C(F)(F)F)c3)cc1)nn2[C@@H]1CCOC1 [AD68, N-(4-(4-amino-1-((R)-tetrahydrofuran-3-yl)-1H-pyrazolo[3,4-d]pyrimidin-3-yl)phenyl)-3-(trifluoromethyl)benzamide] | – | – | 8.4550e−3 | –
Nc1ncnc2c1c(-c1ccc(NC(=O)Nc3cccc(C(F)(F)F)c3)cc1)nn2[C@@H]1CCOC1 [AD69, 1-(4-(4-amino-1-((R)-tetrahydrofuran-3-yl)-1H-pyrazolo[3,4-d]pyrimidin-3-yl)phenyl)-3-(3-(trifluoromethyl)phenyl)urea] | – | – | 0.0127 | –
Nc1ncnc2c1c(-c1ccc(NC(=O)c3cccc(C(F)(F)F)c3)cc1)nn2[C@H]1CCNC1 [AD70, N-(4-(4-amino-1-((S)-pyrrolidin-3-yl)-1H-pyrazolo[3,4-d]pyrimidin-3-yl)phenyl)-3-(trifluoromethyl)benzamide] | – | – | 9.0580e−3 | –
Nc1ncnc2c1c(-c1ccc(NC(=O)Nc3cccc(C(F)(F)F)c3)cc1)nn2[C@H]1CCN(C(=O)Nc2cccc(C(F)(F)F)c2)C1 [AD71c] | – | – | 1.2650e−3 | –
Nc1ncnc2c1c(-c1ccc(NC(=O)c3cccc(C(F)(F)F)c3)cc1)nn2[C@@H]1CCNC1 [AD72, N-(4-(4-amino-1-((R)-pyrrolidin-3-yl)-1H-pyrazolo[3,4-d]pyrimidin-3-yl)phenyl)-3-(trifluoromethyl)benzamide] | – | – | 6.4950e−3 | –
Nc1ncnc2c1c(Cc1cccc(NC(=O)c3cccc(C(F)(F)F)c3)c1)nn2Cc1ccccc1 [BB5, N-(3-((4-amino-1-benzyl-1H-pyrazolo[3,4-d]pyrimidin-3-yl)methyl)phenyl)-3-(trifluoromethyl)benzamide] | 5.00E−03 | 0.1247 | – | –
Nc1ncnc2c1c(Cc1cccc(NC(=O)Nc3cccc(C(F)(F)F)c3)c1)nn2Cc1ccccc1 [BB6, 1-(3-((4-amino-1-benzyl-1H-pyrazolo[3,4-d]pyrimidin-3-yl)methyl)phenyl)-3-(3-(trifluoromethyl)phenyl)urea] | 3.00E−03 | 0.1506 | – | –
CNC(=O)c1cc(Oc2ccc(NC(=O)Nc3ccc(Cl)c(C(F)(F)F)c3)cc2)ccn1 [Sorafenib, reference compound] | 0.0683 | 0.03645 | – | –
